Reference: patent US20240240224A1, “FLUORESCENT D-TYPE AMINO ACID METABOLISM MARKER-BASED METHOD FOR DETECTING ANTIBACTERIAL DRUG SENSITIVITY TEST” (priority 2020, published 2024)
In brackets after ≈: the same amount, converted by molar mass.

How the values were obtained:
[1] = tested on: alveolar lavage fluid sample 0219, A. baumannii; test: FaAST (FDAA) susceptibility test of patient alveolar lavage fluid; assay type: cell-based, Acinetobacter baumannii; settings: unit assumed
Experimental: (§1) With reference to the flow chart of the rapid detection method of antimicrobial susceptibility test based on FDAA metabolic markers shown in FIG. 3, FDAA is used for the detection of antimicrobial susceptibility test of alveolar lavage fluid. The specific experimental steps are as follows: • 1. Mix bronchoalveolar lavage fluid (BALF, 10 ml) of patients with hospital acquired pneumonia with cation regulated broth medium (CAMHB, 10 ml) of twice the concentration to prepare the bacterial fluid to be tested. • 2. Add 45 μl antibiotic solutions of different concentrations to the 96-well plate separately (see Table 1 for antibiotic concentration gradient settings). • 3. Add 50 μl of the bacterial solution prepared in step 1 to the 96-well plate and mix well. • 4. Add 5 μl of 10 mM Cy5-DAA probe (final concentration 0.15 mM, see FIG. 1 for its structure) into each well, mix well, and then cultivate in dark for 2 hours. • 5. Add 200 μl PBS solution for dilution, and then use flow cytometry to detect the fluorescence intensity of each sample.
(§2) The results of antimicrobial susceptibility test of alveolar lavage fluid of seven patients using FDAA and BMD methods are shown in the following table. The drug-resistant bacteria are shown in bold.

[2] = tested on: alveolar lavage fluid sample 0130, A. baumannii; test: as above; assay type: cell-based, Acinetobacter baumannii; settings: unit assumed
Experimental: as §1, §2

[3] = tested on: alveolar lavage fluid sample 0204, A. baumannii; test: as above; assay type: cell-based, Acinetobacter baumannii; settings: unit assumed
Experimental: as §1, §2

[4] = tested on: alveolar lavage fluid sample 0206, A. baumannii; test: as above; assay type: cell-based, Acinetobacter baumannii; settings: unit assumed
Experimental: as §1, §2

[5] = tested on: bacteria contained in alveolar lavage fluid; test: FDAA metabolic labeling susceptibility test of alveolar lavage fluid (Cy5-DAA probe); assay type: cell-based; settings: alveolar lavage fluid of patients with hospital acquired pneumonia, 2 hours
Experimental: as §1

[6] = tested on: Acinetobacter baumannii ABA19; test: FaAST with DAA-Tetra probe; assay type: cell-based; settings: unit assumed
[7] = tested on: Enterococcus faecium EFM26; test: FaAST with DAA-Tetra probe; assay type: cell-based; settings: unit assumed
[8] = tested on: Pseudomonas aeruginosa PAE2; test: FaAST with DAA-Tetra probe; assay type: cell-based; settings: unit assumed
[9] = tested on: alveolar lavage fluid sample 0130, A. baumannii; test: BMD susceptibility test of patient alveolar lavage fluid; assay type: cell-based, Acinetobacter baumannii; settings: unit assumed
Description: as §2

S. aureus Sa22 = test: FaAST (FDAA metabolic labeling method); assay type: cell-based, Staphylococcus aureus; settings: unit assumed
Experimental: (§3) Take the colony to be tested that has been cultured overnight on the plate and fully mix it in normal saline to make a uniform bacterial solution. Dilute it into Cation-Adjusted Mueller Hinton Broth (CAMHB) culture medium to make a bacterial solution with OD600=0.05. • 2. Add 45 μl antibiotic solutions of different concentrations to 96-well plates (see Table 1 for antibiotic concentration gradient settings). • 3. Add 50 μl of the bacterial solution prepared in step 1 to the 96-well plate and mix well. • 4. Add 5 μl of 10 mM Cy5-DAA probe (final concentration 0.15 mM, see FIG. 1 for its structure) into each well, mix well, and cultivate in dark for 2 hours. • 5. Add 200 μl After PBS solution is diluted, the fluorescence intensity of each sample is detected by flow cytometry. The flow detection results are shown in FIG. 4-5, showing the curve of the change of antibiotic concentration gradient and fluorescence intensity. The MIC (minimum inhibitory concentration) can be obtained by referring to this curve.
(§4) Bacteria with antibiotic resistance are shown in bold in the following table.

S. aureus ATCC29213 = test: FaAST (FDAA metabolic labeling method); assay type: cell-based, Staphylococcus aureus; settings: unit assumed
Experimental: as §3, §4

S. aureus Sa23 = test: FaAST (FDAA metabolic labeling method); assay type: cell-based, Staphylococcus aureus; settings: unit assumed
Experimental: as §3, §4

P. aeruginosa Pa3 [10] = test: BMD susceptibility test; assay type: cell-based, Pseudomonas aeruginosa; settings: unit assumed
P. aeruginosa Pa2 = test: FaAST (FDAA metabolic labeling); assay type: cell-based, Pseudomonas aeruginosa; settings: unit assumed
Experimental: (§5) The specific experimental steps are as follows: • 1. Take the colony to be tested that has been cultured overnight on the plate and fully mix it in normal saline to make a uniform bacterial solution. Dilute it into CAMHB medium to make a bacterial solution with OD600=0.05. • 2. Add 45 μl antibiotic solutions to be tested of different concentrations to 96-well plates (see Table 3 for antibiotic concentration gradient settings). • 3. Add 50 μl of bacterial solution prepared in Step 1 to the 96-well plate and mix well. • 4.5 μl of 10 mM Cy5-DAA probe was added to each well (final concentration was 0.15 mM, and its structure was shown in FIG. 1). After mixing, the probe was incubated for 2 hours in the dark. • 5. After dilution with 200 μl PBS solution, the fluorescence intensity of each sample was detected by flow cytometry. The flow detection results are shown in the attached FIG. 4-5, showing the curve of antibiotic concentration gradient and fluorescence intensity, and the MIC (minimum inhibitory concentration) is obtained by referring to this curve.
(§6) Antibiotic resistant strains are shown in bold in the table below.

P. aeruginosa Pa3 [11] = test: FaAST (FDAA metabolic labeling); assay type: cell-based, Pseudomonas aeruginosa; settings: unit assumed
Experimental: as §5, §6

Pa ATCC 27853 = test: FaAST (FDAA metabolic labeling); assay type: cell-based, Pseudomonas aeruginosa; settings: unit assumed
Experimental: as §5, §6

E. faecium Ef26 = test: FaAST (FDAA metabolic labeling method); assay type: cell-based, Enterococcus faecium; settings: unit assumed
Procedure, shortened: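 Bacteria at OD600=0.05 in CAMHB exposed to antibiotic concentration gradients with Cy5-DAA probe […], 2 h in the dark. Fluorescence read by flow cytometry after PBS dilution; MIC taken from the curve of fluorescence intensity versus antibiotic concentration.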

E. coli Ec11 = test: FaAST (FDAA metabolic labeling); assay type: cell-based, Escherichia coli; settings: unit assumed
Procedure, shortened: (§7)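 Bacteria diluted to OD600=0.05 in CAMHB were exposed to an antibiotic concentration series with Cy5-DAA probe […] for 2 h in the dark. Per-sample fluorescence was read by flow cytometry after PBS dilution. MIC was taken from the antibiotic concentration–fluorescence curve.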

Ec ATCC 25922 = test: FaAST (FDAA metabolic labeling); assay type: cell-based, Escherichia coli; settings: unit assumed
Procedure, shortened: as §7

## C[C@H]1COc2c(N3CCN(C)CC3)c(F)cc3c(=O)c(C(=O)O)cn1c23 [Levofloxacin, levofloxacin]
[1]
  FaAST (MIC): 64 µg/mL
[2]
  FaAST (MIC): 64 µg/mL
[3]
  FaAST (MIC): 0.25 µg/mL
[4]
  FaAST (MIC): 64 µg/mL
[5]
  MIC, FDAA: ≥32 µg/mL
[6]
  MIC, FaAST: 0.5 µg/mL (≈ 1.38 µM)
[7]
  MIC, FaAST: 64 µg/mL (≈ 177 µM)
[8]
  MIC, FaAST: 0.5 µg/mL (≈ 1.38 µM)
[9]
  BMD (MIC): 64 µg/mL
S. aureus Sa22
  FaAST (MIC): 32 µg/mL
S. aureus ATCC29213
  FaAST (MIC): 0.5 µg/mL
S. aureus Sa23
  FaAST (MIC): 1 µg/mL
P. aeruginosa Pa3 [10]
  BMD (MIC): 0.5 µg/mL
P. aeruginosa Pa2
  FaAST (MIC): 0.5 µg/mL
P. aeruginosa Pa3 [11]
  FaAST (MIC): 0.5 µg/mL
Pa ATCC 27853
  FaAST (MIC): 0.5 µg/mL
E. faecium Ef26
  FaAST (MIC): 64 µg/mL
E. coli Ec11
  FaAST (MIC): 0.5 µg/mL
Ec ATCC 25922
  FaAST (MIC): ≤ 0.25 µg/mL
